Test results taken from BindingDB's records for doi:10.1016/j.bmc.2014.03.018 (Deakin University, 2014).

Experiment: Antagonist activity at androgen receptor in human LNCAP cells assessed as inhibition of androgen-stimulated cell growth measured every 3 days

For `CC(C)(O)c1cn(-c2ccc(Cl)c(C(F)(F)F)c2)nn1`, the IC50 was 49 µM.
With `CC(C)(O)c1cn(-c2ccc([N+](=O)[O-])c(C(F)(F)F)c2)nn1` the IC50 was 45 µM.
